Assay results published in ChEMBL document CHEMBL1156829 (Proc Natl Acad Sci U S A, 2008).

Tests used:
Plasmodium falciparum [1] = assay: NOVARTIS: Inhibition of Plasmodium falciparum W2 (drug-resistant) proliferation in erythrocyte-based infection assay; type: functional, organism-based; conditions: Plasmodium falciparum, W2; read-out: EC50
Plasmodium falciparum [2] = assay: NOVARTIS: Inhibition of Plasmodium falciparum 3D7 (drug-susceptible) proliferation in erythrocyte-based infection assay; type: functional, organism-based; conditions: Plasmodium falciparum, 3D7
[3] = NOVARTIS: Cytotoxicity against human hepatocellular carcinoma cell line (Huh7); type: toxicity, cell-based, Huh-7; conditions: Huh7 cells (hepatocellular carcinoma cell line)

SMILES | EC50 (Plasmodium falciparum [1]) [nM] | EC50 (Plasmodium falciparum [2]) [nM] | CC50 [3] [µM]
Cc1sc2nc3c4ccccc4c(NCCCN(C)C)nn3c(=O)c2c1C | 2300 | 6600 | 60
CCN1/C(=C/c2sc3ccc(Br)cc3[n+]2CC)C=Cc2ccccc21 | 1080 | 645 | > 10
CN(C)CC(O)Cn1c2ccccc2c2ccccc21 (stereo not given) | 275 | > 11700 | 52.8
Cc1nc2c(=O)n(C)c(=O)nc-2n(C)n1 | 398 | 593 | > 10
CN1CCc2c(sc3nc(SCc4ccc(Cl)cc4)n(-c4cccc(Cl)c4)c(=O)c23)C1 | 363 | 1050 | > 100
CCCOc1ccc(C2Sc3ccccc3N=C3C2=C(O)c2ccccc23)cc1OC (stereo not given) | 178 | 483 | > 100
C=CCN1C(=O)/C(=C\c2ccccc2)C(C(=O)OC)=C1C | 262 | 589 | > 10
CC(=O)N(C)C1=C(N2CCCC2)C(=O)c2ccccc2C1=O | 299 | 516 | 15.1
COc1ccc2nc3cc(Cl)ccc3c(Nc3ccc(O)cc3)c2c1 | 845 | 809 | > 10
COc1cc(C(=O)NC(c2ccccc2Cl)c2cc(Cl)c3cccnc3c2O)cc(OC)c1OC (stereo not given) | 3470 | 6150 | > 100
O=C(c1cc2n(n1)C(C(F)(F)F)CC(c1ccc3c(c1)OCO3)N2)N1CCN(C(c2ccccc2)c2ccccc2)CC1 (stereo not given) | 1600 | 5260 | > 100
COc1ccc(-c2c[n+](CC(=O)c3ccc(Cl)cc3)c3n2CCC3)cc1 | 150 | 641 | > 100
CCOc1ccc2[nH]c3c(NCCN(C)C)ncnc3c2c1 | 437 | 773 | 32.5
CC(C)(C)NCC(O)COc1cccc2oc3ccccc3c12 (stereo not given) | 653 | > 1250 | > 10
Cn1nc(C(F)(F)F)c(-c2ccc(F)cc2)c1NC(=O)Nc1ccccc1 | 353 | 392 | 54.3
Cc1c2ccccc2c(-c2ccccc2)c2ccccc12 | 626 | 1230 | 6
CCCn1c(=N)c(C(=O)NC(C)c2ccccc2)cc2c(=O)n3cccc(C)c3nc21 (stereo not given) | 3530 | 1650 | > 100
CC[C@H]1CN2CC[C@H]1C[C@H]2[C@H](O)c1ccnc2ccccc12 | 696 | 183 | > 7.91
CCOC(=O)C1=C(C)NC2=C(C(=O)CC(c3ccc(OC)c(OC)c3)C2)C1c1cccc(Cl)c1 (stereo not given) | 55.6 | 88.2 | > 74.6
Cc1nc(-c2nc3c(s2)CN(C(=O)CCc2cccnc2)CC3)cs1 | 335 | 1090 | > 10
COc1ccc(-c2c[n+](CC(=O)c3ccccc3)c3n2CCC3)cc1 | 571 | 1200 | > 100
NS(=O)(=O)c1ccc(CCNC(=O)/C=C/c2ccc3c(c2)OCO3)cc1 | > 583 | > 1400 | > 10
O=C(Cc1cccs1)N1CCOc2c(cc(-c3csc4ccccc34)cc2OCCc2ccccn2)C1 | 106 | 179 | > 100
Cc1cc(C)n(-c2ccc(NC(=O)C3CCN(Cc4cnc(C)s4)CC3)cc2)n1 | 840 | 811 | > 100

SMILES | EC50 (Plasmodium falciparum [1]) [nM] | EC50 (Plasmodium falciparum [2]) [nM] | CC50 [3] [µM]
CC(C)(C)c1ncccc1OC(=O)C12CC3CC(CC(C3)C1)C2 | > 1470 | 349 | > 10
O=C(Nc1ccc(-c2ccc(Cl)cc2)cc1)c1cccs1 | 225 | 285 | > 100
Oc1cccc(-c2cncc(-c3cccnc3)n2)c1 | 1290 | 1300 | > 10
Cn1cnnc1SCC(=O)Nc1ccccc1C(F)(F)F | 1190 | > 12500 | > 100
O=C(Nc1ccc(O)cc1)c1cccc(S(=O)(=O)N2CCCCC2)c1 | 621 | 6910 | > 100
O=C(COc1cccc(Cl)c1)Nc1nccs1 | > 9290 | > 12500 | > 100
O=C(NC1CCN(CC(O)CN(Cc2ccccc2)S(=O)(=O)c2ccccc2)C1)c1ccco1 (stereo not given) | 319 | 1160 | > 10
CCOC(=O)c1c(NC(=O)COc2ccccc2[N+](=O)[O-])sc(C(C)=O)c1C | > 853 | > 1250 | > 10
COC(=O)C1=CN(Cc2ccc(OC)cc2)C=C(C(=O)OC)C1c1cccs1 | 602 | 5640 | > 100
Cc1ccc(-n2c(-c3ccccc3)cc(C=NNC(=O)c3cccc(O)c3)c2-c2ccccc2)cc1 | 139 | 150 | > 100
C=CCc1cc(-c2cc(CC=C)c(O)c(CN(CC)CC)c2)cc(CN(CC)CC)c1O | 61.9 | 273 | > 10
c1ccc(-c2nn(-c3ccccc3)[n+](-c3ccccc3)n2)cc1 | 207 | 296 | > 100
CCCCCCCn1c2c(c(=N)c3ccccc31)CCC2 | 231 | 277 | 3.86
CCOc1ccc(-c2nc(NC(=O)CS(=O)(=O)c3ccccc3)sc2C)cc1 | 740 | 525 | > 100
Cc1ccccc1C=NNc1nc2ccccc2[nH]1 | 249 | 605 | > 100
O=C(N/C(=C/C=C/c1ccccc1)C(=O)N1CCCCC1)c1ccc([N+](=O)[O-])cc1 | > 889 | > 719 | > 10
CCCCCCN(C(=O)COc1ccccc1)C(CC)c1nc2ccccc2c(=O)n1-c1cccc(Cl)c1 (stereo not given) | 4010 | 2740 | > 100
CCOCCCNC(=O)C1CCCN(S(=O)(=O)c2ccc(C)cc2)C1 (stereo not given) | > 730 | > 659 | > 10
CCOC(=O)CSC1=Nc2ccccc2C2=NC(Cc3ccccc3)C(=O)N12 (stereo not given) | 407 | > 1250 | > 10
CCOC(=O)c1c(NC(=O)c2ccc(S(=O)(=O)N(C)c3ccccc3)cc2)sc2c1CCN(C(=O)OCC)C2 | > 3290 | > 10600 | > 100
COc1ccc(NC(=O)/C=C/c2ccccc2Cl)cc1 | > 1140 | > 1250 | > 10
O=C(NCCc1ccccc1)c1cnc(NCCCn2ccnc2)nc1NCC1CCCCC1 | 208 | 91.4 | > 10
CN(C)c1ccc(C2Nc3ccccc3NC3=C2C(=O)CC(C)(C)C3)cc1 (stereo not given) | 4390 | > 12500 | > 100
COc1ccc(C=NNc2cc(C)nc3ccccc23)cc1 | 207 | 228 | 18.9

SMILES | EC50 (Plasmodium falciparum [1]) [nM] | EC50 (Plasmodium falciparum [2]) [nM] | CC50 [3] [µM]
OCCCNc1cc(-c2ccccn2)nc(-c2ccccn2)n1 | 401 | > 908 | > 10
N#C/C(=C\c1ccc(Sc2ccccc2)o1)c1nc2ccccc2[nH]1 | 947 | 1510 | > 10
COC(=O)C1=C(C(=O)OC)SC(=C2C(=S)C(C)(C)N(C(=O)c3ccc([N+](=O)[O-])cc3)c3ccc(C)cc32)S1 | > 1150 | > 371 | > 10
CC(=O)Nc1ccc2c(c1)C(=O)N(C(C(=O)NCc1ccccc1)C1CCCCC1)[C@@H](Cc1ccc(O)cc1)C(=O)N2 (stereo not given in full) | 555 | 807 | 0.659
OCCNc1nc(Nc2ccc(Cl)c(Cl)c2)nc2ccccc12 | 154 | 140 | 9.4
FC(F)(F)c1ccc(-c2nc(C34CC5CC(CC(C5)C3)C4)cs2)cc1 | 200 | 1570 | > 10
O=C(COC(=O)c1c2c(nc3ccccc13)CCCCCCCCCC2)c1ccc(Cl)cc1 | > 10000 | > 11200 | > 100
CCNC(=O)NS(=O)(=O)c1cnccc1Sc1cccc(C)c1 | > 1250 | > 1030 | > 10
CCOC(=O)C1=C(C)N(c2ccc(N(C)C)cc2)C(C)=C(C(=O)OCC)C1c1ccc(Br)cc1 | 896 | > 1130 | 19.6
Cc1sc2nc(CN(C(=O)CCc3ccccc3)C3CCCCC3)[nH]c(=O)c2c1C | 424 | > 1250 | 1.94
O=c1cc(NC2CCN(CCCc3ccccc3)CC2)c2cc(Cl)ccc2o1 | 863 | 408 | 20.5
NC12CC3CC(C1)CC(SSC14CC5CC(CC(N)(C5)C1)C4)(C3)C2 | 191 | 208 | 1.96
Cc1ccc(-c2nnc(N3CCOCC3)c3ccccc23)cc1S(=O)(=O)N1CCN(C)CC1 | > 1220 | > 1250 | > 10
COCCNC(=O)C(c1ccc(C)cc1)N(Cc1ccccc1)C(=O)CCC(=O)Nc1nccs1 (stereo not given) | 1720 | > 4590 | > 100
CC1C/C(=C/c2ccncc2)C(=O)/C(=C/c2ccncc2)C1 (stereo not given) | 990 | 1210 | > 10
OC1=C2C(=Nc3ccccc3SC2c2ccc(Br)cc2)c2ccccc21 (stereo not given) | 57.7 | 337 | > 48
CCOc1ccc2nc3cc(NCc4ccco4)ccc3c(N)c2c1 | 757 | 846 | 37.9
Cc1onc(-c2ccccc2Cl)c1C(=O)Nc1cc(Cl)ccc1Cl | 330 | 369 | > 100
Cc1cc(Nc2ccc(Br)cc2)nc2ccccc12 | 1690 | > 1250 | > 10
CCN1C=CC(=Cc2ccc3ccccc3[n+]2C)C=C1 | 976 | 453 | 20
COc1ccc(-n2cnc3cc(NCc4nc5ccccc5n4C)ccc32)cc1 | 906 | 912 | 56.8
CCc1ccc(NC(=O)c2sc3nc(N)c(C#N)c(-c4ccc(OC)c(OC)c4)c3c2N)cc1 | 3990 | 5810 | > 100
